# According to paper PMC11331526 (2024):
# Tested on: d(G5C5)2 (G5C5) (DNA, duplex) GGGGGCCCCC
# Test: emission titration, Bard fit
# Settings: 50 mM potassium phosphate, pH 7, 298 K, table title per base pair, fit per nucleotide
"Kb (site size 3.4, text prints 10^5)","Kb (site size 2.6, text error ±0.6)",SMILES
9.4(±1.2) × 10^6 M^-1,,[Ru+2].c1ccc2c(c1)ccc1nc3c4cccnc4c4ncccc4c3nc12.c1cnc2c(ccc3nccnc32)n1.c1cnc2c(ccc3nccnc32)n1
,2.5(±0.4) × 10^6 M^-1,[Ru+2].c1ccc2cc3nc4c5cccnc5c5ncccc5c4nc3cc2c1.c1cnc2c(ccc3nccnc32)n1.c1cnc2c(ccc3nccnc32)n1
